This is an account of results in patent US20240246964A1 (Arbutus Biopharma Corporation, priority 2021, published 2024).

In general, EC50 refers to the concentration giving half of the maximal effect. Low values mean higher potency in that assay, high ones lower potency in that assay.

Some results are limits rather than exact numbers.

The test deals with human PD-L1 (Homo sapiens (Human), UniProt Q9NZQ7). Description: T cell activation luciferase reporter cell culture system (T Cell Activation Assay). Type of test: cell-based. The conditions noted are these: luciferase reporter assay; PD-L1 aAPC/CHO-K1 cells with PD-1 effector Jurkat T cells. In general terms: Reporter assays use an easily measured gene product as a stand-in for the process of interest.
Chain of human PD-L1 (Q9NZQ7 19-290): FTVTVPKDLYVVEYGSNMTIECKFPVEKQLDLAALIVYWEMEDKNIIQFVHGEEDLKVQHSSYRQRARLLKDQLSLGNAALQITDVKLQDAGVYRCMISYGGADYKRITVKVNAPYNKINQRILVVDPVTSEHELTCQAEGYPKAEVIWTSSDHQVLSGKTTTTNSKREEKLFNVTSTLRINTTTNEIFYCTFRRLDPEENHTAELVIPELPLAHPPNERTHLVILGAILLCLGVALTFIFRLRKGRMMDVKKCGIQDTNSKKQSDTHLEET

Regarding `COc1cc(-c2nccc(-c3cccc(-c4ccc(CNC[C@@H]5CCC(=O)N5)c(OC)n4)c3Cl)c2Cl)ccc1CN1CCC(NC(C)=O)CC1` [Example 403, (S)—N-(1-(4-(3-Chloro-4-(2-chloro-3-(6-methoxy-5-((((5-oxopyrrolidin-2-yl)methyl)amino)methyl)pyridin-2-yl)phenyl)pyridin-2-yl)-2-methoxybenzyl)piperidin-4-yl)acetamide], the EC50 amounted to 18.9 nM.
Then `COc1cc(-c2nccc(-c3cccc(-c4ccc(CNC5CCN(C(C)=O)CC5)c(OC)n4)c3Cl)c2C#N)ccc1CNC1CCN(C(C)=O)CC1` [Example 404, 2-(4-(((1-Acetylpiperidin-4-yl)amino)methyl)-3-methoxyphenyl)-4-(3-(5-(((1-acetylpiperidin-4-yl)amino)methyl)-6-methoxypyridin-2-yl)-2-chlorophenyl)nicotinonitrile], with 23.9 nM; and `COc1cc(-c2nccc(-c3cccc(-c4ccc(CNC5CCN(C(C)=O)CC5)c(OC)n4)c3Cl)c2Cl)ccc1CN1CCC(C)(N)CC1` [Example 406, 1-(4-(((6-(3-(2-(4-((4-Amino-4-methylpiperidin-1-yl)methyl)-3-methoxyphenyl)-3-chloropyridin-4-yl)-2-chlorophenyl)-2-methoxypyridin-3-yl)-methyl)-amino)piperidin-1-yl)ethan-1-one], with 62.7 nM; and `COc1cc(-c2nccc(-c3cccc(-c4ccc(CNC5CCN(C(C)=O)CC5)c(OC)n4)c3Cl)c2Cl)ccc1CNC[C@H]1CNC(=O)C1` [Example 407, (S)-4-(((4-(4-(3-(5-(((1-Acetylpiperidin-4-yl)amino)methyl)-6-methoxypyridin-2-yl)-2-chlorophenyl)-3-chloropyridin-2-yl)-2-methoxybenzyl)amino)methyl)pyrrolidin-2-one], with 20 nM.
Then `COc1cc(-c2nccc(-c3cccc(-c4ccc(CN5CC6(CNC(=O)C6)C5)c(OC)n4)c3C)c2Cl)ccc1CN1CC2(CNC(=O)C2)C1` [Example 408, 2-((6-(3-(3-chloro-2-(3-methoxy-4-((7-oxo-2,6-diazaspiro[3.4]octan-2-yl)methyl)phenyl)pyridin-4-yl)-2-methylphenyl)-2-methoxypyridin-3-yl)methyl)-2,6-diazaspiro[3.4]octan-7-one], with 39.4 nM; and `COc1cc(-c2nccc(-c3cccc(-c4ccc(CN5CC6(C5)CN(C(C)=O)C6)c(OC)n4)c3C)c2Cl)ccc1CN1CC2(C1)CN(C(C)=O)C2` [Example 409, 1-(6-((6-(3-(2-(4-((6-acetyl-2,6-diazaspiro[3.3]heptan-2-yl)methyl)-3-methoxyphenyl)-3-chloropyridin-4-yl)-2-methylphenyl)-2-methoxypyridin-3-yl)methyl)-2,6-diazaspiro[3.3]heptan-2-yl)ethan-1-one], with 274 nM.
Compound `COc1cc(-c2nccc(-c3cccc(-c4ccc(CN[C@H]5CC[C@@H](O)CC5)c(OC)n4)c3Cl)c2Cl)ccc1CN[C@H]1CC[C@@H](O)CC1` [Example 410, (1s,4s)-4-(((6-(2-Chloro-3-(3-chloro-2-(4-((((1s,4s)-4-hydroxycyclohexyl)amino)methyl)-3-methoxyphenyl)pyridin-4-yl)phenyl)-2-methoxypyridin-3-yl)methyl)amino)cyclohexan-1-ol] yielded an EC50 of 46.3 nM.
Then `COc1cc(-c2nccc(-c3cccc(-c4ccc(CN5CCOCC5)c(OC)n4)c3Cl)c2Cl)ccc1CN1CCOCC1` [Example 411, 4-((6-(2-Chloro-3-(3-chloro-2-(3-methoxy-4-(morpholinomethyl)phenyl)pyridin-4-yl)phenyl)-2-methoxypyridin-3-yl)methyl)morpholine], with not below 10000 nM; and `COc1cc(-c2nccc(-c3cccc(-c4ccc(CN5CCC(O)CC5)c(OC)n4)c3Cl)c2Cl)ccc1CN1CCC(O)CC1` [Example 412, 1-((6-(2-Chloro-3-(3-chloro-2-(4-((4-hydroxypiperidin-1-yl)methyl)-3-methoxyphenyl)pyridin-4-yl)phenyl)-2-methoxypyridin-3-yl)methyl)piperidin-4-ol], with 15.7 nM; and `COc1cc(-c2nccc(-c3cccc(-c4ccc(CNC5CCN(C)C(=O)C5)c(OC)n4)c3Cl)c2Cl)ccc1CNC1CCN(C)C(=O)C1` (stereo not shown) [Example 418, 4-(((6-(2-Chloro-3-(3-chloro-2-(3-methoxy-4-(((1-methyl-2-oxopiperidin-4-yl)amino)methyl)phenyl)pyridin-4-yl)phenyl)-2-methoxypyridin-3-yl)methyl)amino)-1-methylpiperidin-2-one], with 11.8 nM.
The compound `COc1cc(-c2nccc(-c3cccc(-c4ccc(CNC5CCN(C(=O)N(C)C)CC5)c(OC)n4)c3Cl)c2Cl)ccc1CNC1CCN(C(=O)N(C)C)CC1` [Example 419, 4-(((6-(2-Chloro-3-(3-chloro-2-(4-(((1-(dimethylcarbamoyl)piperidin-4-yl)amino)methyl)-3-methoxyphenyl)pyridin-4-yl)phenyl)-2-methoxypyridin-3-yl)methyl)amino)-N,N-dimethylpiperidine-1-carboxamide] returned an EC50 of 19.5 nM.
As for `COc1cc(-c2nccc(-c3cccc(-c4ccc(CNC5CCN(CC(F)F)CC5)c(OC)n4)c3Cl)c2Cl)ccc1CNC1CCN(CC(F)F)CC1` [Example 420, N-((6-(2-Chloro-3-(3-chloro-2-(4-(((1-(2,2-difluoroethyl)piperidin-4-yl)amino)methyl)-3-methoxyphenyl)pyridin-4-yl)phenyl)-2-methoxypyridin-3-yl)methyl)-1-(2,2-difluoroethyl)piperidin-4-amine], the figure is 42.6 nM; as for `COc1cc(-c2nccc(-c3cccc(-c4ccc(CN5CCC(NC(C)=O)CC5)c(OC)n4)c3Cl)c2Cl)ccc1CNC1CCOCC1` [Example 432, N-(1-((6-(2-Chloro-3-(3-chloro-2-(3-methoxy-4-(((tetrahydro-2H-pyran-4-yl)amino)methyl)phenyl)pyridin-4-yl)phenyl)-2-methoxypyridin-3-yl)methyl)piperidin-4-yl)acetamide], 52.1 nM; as for `COc1cc(-c2nccc(-c3cccc(-c4ccc(CN5CC6(CNC(=O)C6)C5)c(OC)n4)c3Cl)c2C#N)ccc1CN1CC2(CNC(=O)C2)C1` [Example 433, 4-(2-Chloro-3-(6-methoxy-5-((7-oxo-2,6-diazaspiro[3.4]octan-2-yl)methyl)pyridin-2-yl)phenyl)-2-(3-methoxy-4-((7-oxo-2,6-diazaspiro[3.4]octan-2-yl)methyl)phenyl)nicotinonitrile], 39.9 nM.
Then `COc1cc(-c2nccc(-c3cccc(-c4ccc(CNC5CCOCC5)c(OC)n4)c3Cl)c2C#N)ccc1CNC1CCOCC1` [Example 434, 4-(2-Chloro-3-(6-methoxy-5-(((tetrahydro-2H-pyran-4-yl)amino)methyl)pyridin-2-yl)phenyl)-2-(3-methoxy-4-(((tetrahydro-2H-pyran-4-yl)amino)methyl)phenyl)nicotinonitrile], with 37.8 nM; and `COc1cc(-c2nccc(-c3cccc(-c4ccc(CN5CC[C@H](O)C5)c(OC)n4)c3Cl)c2Cl)ccc1CN1CC[C@H](O)C1` [Example 435, (S)-1-((6-(2-Chloro-3-(3-chloro-2-(4-(((S)-3-hydroxypyrrolidin-1-yl)methyl)-3-methoxyphenyl)pyridin-4-yl)phenyl)-2-methoxypyridin-3-yl)methyl)pyrrolidin-3-ol], with 9.95 nM.
As for `COc1cc(-c2nccc(-c3cccc(-c4ccc(CN(C)C5CCOCC5)c(OC)n4)c3Cl)c2Cl)ccc1CNC1CCN(C(C)=O)CC1` [Example 436, 1-(4-((4-(3-chloro-4-(2-chloro-3-(6-methoxy-5-((methyl(tetrahydro-2H-pyran-4-yl)amino)methyl)pyridin-2-yl)phenyl)pyridin-2-yl)-2-methoxybenzyl)amino)piperidin-1-yl)ethan-1-one], the figure is 134 nM; as for `COc1cc(-c2nccc(-c3cccc(-c4ccc(CNC5CCN(CC(F)(F)F)CC5)c(OC)n4)c3Cl)c2Cl)ccc1CNC1CCN(CC(F)(F)F)CC1` [Example 437, N-((6-(2-Chloro-3-(3-chloro-2-(3-methoxy-4-(((1-(2,2,2-trifluoroethyl)piperidin-4-yl)amino)methyl)phenyl)pyridin-4-yl)phenyl)-2-methoxypyridin-3-yl)methyl)-1-(2,2,2-trifluoroethyl)piperidin-4-amine], 157 nM; as for `COc1cc(-c2nccc(-c3cccc(-c4ccc(CNC5CCN(C(=O)CO)CC5)c(OC)n4)c3Cl)c2Cl)ccc1CNC1CCN(C(=O)CO)CC1` [Example 443, 1-(4-(((6-(2-Chloro-3-(3-chloro-2-(4-(((1-(2-hydroxyacetyl)piperidin-4-yl)amino)methyl)-3-methoxyphenyl)pyridin-4-yl)phenyl)-2-methoxypyridin-3-yl)methyl)amino)piperidin-1-yl)-2-hydroxyethan-1-one], 10.5 nM.
`COc1cc(-c2nccc(-c3cccc(-c4ccc(CNC5CCN(c6ccccn6)CC5)c(OC)n4)c3Cl)c2Cl)ccc1CNC1CCN(c2ccccn2)CC1` [Example 444, N-((6-(2-Chloro-3-(3-chloro-2-(3-methoxy-4-(((1-(pyridin-2-yl)piperidin-4-yl)amino)methyl)phenyl)pyridin-4-yl)phenyl)-2-methoxypyridin-3-yl)methyl)-1-(pyridin-2-yl)piperidin-4-amine] had an EC50 not below 10000 nM.
As for `COc1cc(-c2nccc(-c3cccc(-c4ccc(CNC5CCN(c6ncccc6Cl)CC5)c(OC)n4)c3Cl)c2Cl)ccc1CNC1CCN(c2ncccc2Cl)CC1` [Example 445, N-((6-(2-Chloro-3-(3-chloro-2-(4-(((1-(3-chloropyridin-2-yl)piperidin-4-yl)amino)methyl)-3-methoxyphenyl)pyridin-4-yl)phenyl)-2-methoxypyridin-3-yl)methyl)-1-(3-chloropyridin-2-yl)piperidin-4-amine], the figure is not below 10000 nM; as for `COc1cc(-c2nccc(-c3cccc(-c4ccc(CN5CCC(OC)CC5)c(OC)n4)c3Cl)c2Cl)ccc1CN1CCC(OC)CC1` [Example 447, 3-Chloro-4-(2-chloro-3-(6-methoxy-5-((4-methoxypiperidin-1-yl)methyl)pyridin-2-yl)phenyl)-2-(3-methoxy-4-((4-methoxypiperidin-1-yl)methyl)phenyl)pyridine], 61.3 nM.
